Reference: publication PMC4657468, “Impaired uptake of conjugated bile acids and hepatitis b virus pres1-binding in na^+-taurocholate cotransporting polypeptide knockout mice” (Hepatology (Baltimore, Md.), 2015)
Like-named read-outs stand apart in the source and are kept apart here.

Tests used:
[1] = for Serum TCA elimination t½: intravenous bolus 150 μmol TCA/kg with trace tritium-labeled TCA after gallbladder cannulation, one-phase decay, n = 5
Description: Differences between groups were analyzed using a two-tailed Student t test. […] Results were considered statistically significant at P < 0.05.

hepatitis B virus = conditions: cited from earlier work
From the text: (§1) During and after a meal, bile acids (BAs) are released into the small intestine, where they facilitate the absorption of dietary fat and fat-soluble vitamins.[1] The majority of BAs are reabsorbed in the terminal ileum and transported back to the liver through the portal circulation. At the basolateral membranes of the hepatocytes, BAs are taken up from the portal circulation, extruded across the canalicular hepatocyte membrane, and transported to the gallbladder to complete the enterohepatic circulation.[2] Conjugated BAs are transported across the basolateral hepatic membrane through a sodiu ...

NTCP [2] = conditions: at high concentrations; cited from earlier work
From the text: as §1

NTCP [3] = molecular target: T1, NTCP (Mus musculus, UniProt O08705); conditions: 1 μM Myrcludex B, 30 min preincubation, WT PMHs, 10 μM TCA, 1 minute
T1 sequence (O08705 1-362): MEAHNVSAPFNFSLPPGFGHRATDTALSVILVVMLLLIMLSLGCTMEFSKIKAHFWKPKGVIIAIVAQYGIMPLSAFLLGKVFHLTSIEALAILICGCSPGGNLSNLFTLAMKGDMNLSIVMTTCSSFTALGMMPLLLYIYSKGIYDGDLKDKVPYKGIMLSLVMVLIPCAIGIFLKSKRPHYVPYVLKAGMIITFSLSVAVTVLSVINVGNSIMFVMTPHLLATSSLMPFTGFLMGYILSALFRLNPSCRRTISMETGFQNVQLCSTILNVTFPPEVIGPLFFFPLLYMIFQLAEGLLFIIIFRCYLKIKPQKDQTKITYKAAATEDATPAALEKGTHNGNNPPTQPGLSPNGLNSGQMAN
From the text: (§2) Bars represent the mean ± SEM for two independent experiments, each performed in triplicate. *P < 0.05. (B) Total serum BA concentrations in male and female WT and Slc10a1^−/− (KO) mice. Data are given as mean ± SEM on a ^10log scale for seven to 16 mice in each group, quantified using the total BA assay. Serum composition of (C) conjugated and (D) unconjugated BA species as quantified using high-pressure liquid chromatography. […] Unconjugated BA (U-BA) concentrations are the sum of ω-muricholic acid, α-muricholic acid, β-muricholic acid, cholic acid, UDCA, chenodeoxycholic acid, and DCA. Data are given as mean ± SEM on a ^10log scale for three to six mice in each group. *P < 0.05 (compared to WT levels). […] Conjugated BA (dark gray) and unconjugated BA (light gray) species are shown as a percentage of total, as quantified using high-pressure liquid chromatography. (F) Total serum BA levels in relation to body weights of WT (open dots) and KO (black dots) 8-week-old mice (n – 11–14). […]
(§3) mouse NTCP antibody in block ing buffer f or 1 hour. Af ter washings, the slides were incubated with goat anti-rabbit Alexa 568 IgG. Images were captured with a Leica SP8X […]
(§4) Primary hepatocyte isolation and sandwich culture
(§5) Primary mouse hepatocytes (PMHs) were isolated from wild- type and Slc10a1 -/- mice by a 2-step collagenase perfusion method. […]

Slc10a1−/− PMHs = assay type: cell-based, mouse; conditions: 1 μM Myrcludex B, sodium-dependent as well as sodium-free conditions
From the text: as §2, §3, §4, §5

| Compound | Serum TCA elimination t½ ([1]; WT mice) [min] | Lethality of the high dose of TCA ([1]; hypercholanemic Slc10a1−/− mice, intravenous bolus 150 μmol TCA/kg, shortly after injection) | Serum TCA elimination t½ ([1]; normocholanemic Slc10a1−/− mice) [min] | Virus entry mediated by NTCP (hepatitis B virus) | NTCP-mediated BA uptake (NTCP [2]) | Effect on TCA uptake under sodium-free conditions (NTCP [3]; NMDG buffer) | Effect on sodium-dependent TCA uptake (NTCP [3]; sodium-containing buffer) | Effect on TCA uptake in Slc10a1−/− PMHs (Slc10a1−/− PMHs) |
| --- | --- | --- | --- | --- | --- | --- | --- | --- |
| C[C@H](CCC(=O)NCCS(=O)(=O)O)[C@H]1CC[C@H]2[C@@H]3[C@H](O)C[C@@H]4C[C@H](O)CC[C@]4(C)[C@H]3C[C@H](O)[C@]12C [TCA, taurocholic acid] | 1.5 | lethal | 5.3 | – | – | – | – | – |
| Myrcludex B | – | – | – | blocked | inhibits NTCP-mediated BA uptake at high concentrations | no effect | abrogated sodium-dependent TCA uptake | unaffected |
